A short description of one data set: Solubility in water. It counts as physicochemical.
The nature of data set [1]: Ion-exchange plate chromatography (retardation factor Rf), complexing of chromium anions. It counts as binding. To be noted: Polygram Ionex 25-SA-Na plates charged with the ion, developed four times in water. From the text:
(§1) The use of thin layer chromatography plates charged with ions allows rapid evaluation of the complexing of these ions by the species to be evaluated; in the present case, plates of the Polygram Ionex 25-SA-Na type (Macherey-Nagel, ref.: 80613) charged with various counterions to be evaluated.
(§2) Thus, chromatography plates are used onto which are respectively bound the ions acetyl COO^− (designated Ac in FIG. 1), PO4^3−, NO3^−, Cr2O7^2−, Cl^−, SO4^2^−, HCO3^−, BO3^−, WO4^2−, MnO4^−, CrO4^2−, AsO4^2−, AlO2^−.
(§3) In each test, there is introduced onto the plate the compound of Example 1 which will be retained on the plate if it complexes the ions. […] The lower the Rf, for a given ion, the more the ion in question will form a complex with the cyclodextrin compound.

Data set [2] can be described thus: Ion-exchange plate chromatography, complexing of cations. It counts as binding. To be noted: 18 cations tested on ion-exchange plates.
From the text: as §1, §3
Likewise, tests were carried out to see whether the derivatives according to the invention were capable of complexing cations. Tests were carried out with the following ions:
Na^+, K^+, Cs^+,NH4^+,Ca^2+,Ba^2+, Al^3+, Fe^3+, Co^2+, Ni^2+, Cu^2+, Ag^2+, Zn^2+, Hg^2+, Pb^2+, La^3+, Gd^3+, UO2^2+.

Data set [3] can be described thus: Ion-exchange plate chromatography (retardation factor Rf), complexing of manganese anions. It counts as binding. The conditions noted are these: Polygram Ionex 25-SA-Na plates charged with the ion, developed four times in water.
From the text: as §1, §2, §3

Consider “per(3,6-anhydro)cyclomaltohexaose per-2-O-ethylcarbamate [Example 1]”, for which the solubility in water result in “Solubility in water” was “low solubility in water”. In addition, the “complexing rate for chromium ions (Rf, FIG. 1)” value in data set [1] is listed as “high complexing rate”. The “complexing of cations (Rf, FIG. 2)” value in data set [2] is reported as “none of these cations efficiently forms a complex”. In addition, the “complexing rate for manganese ions (Rf, FIG. 1)” value in data set [3] is on record as “high complexing rate”.
